# Measured values taken from patent US11891350B2, “Compounds for use in the treatment or prophylaxis of pain, inflammation and/or autoimmunity” (NOVAREMED LTD., priority 2019, dated 2024).
# Where two headings read alike, the source gives them in different places.
# Legend:
# [1] = molecular target: LynB tyrosine kinase (Homo sapiens, UniProt P07948); assay: Effect on LynB tyrosine kinase activity; format: biochemical
# [2] = molecular target: LynA tyrosine kinase (Homo sapiens, UniProt P07948); assay: Effect on LynA tyrosine kinase activity; format: biochemical
# Chain of LynA tyrosine kinase (P07948 whole entry): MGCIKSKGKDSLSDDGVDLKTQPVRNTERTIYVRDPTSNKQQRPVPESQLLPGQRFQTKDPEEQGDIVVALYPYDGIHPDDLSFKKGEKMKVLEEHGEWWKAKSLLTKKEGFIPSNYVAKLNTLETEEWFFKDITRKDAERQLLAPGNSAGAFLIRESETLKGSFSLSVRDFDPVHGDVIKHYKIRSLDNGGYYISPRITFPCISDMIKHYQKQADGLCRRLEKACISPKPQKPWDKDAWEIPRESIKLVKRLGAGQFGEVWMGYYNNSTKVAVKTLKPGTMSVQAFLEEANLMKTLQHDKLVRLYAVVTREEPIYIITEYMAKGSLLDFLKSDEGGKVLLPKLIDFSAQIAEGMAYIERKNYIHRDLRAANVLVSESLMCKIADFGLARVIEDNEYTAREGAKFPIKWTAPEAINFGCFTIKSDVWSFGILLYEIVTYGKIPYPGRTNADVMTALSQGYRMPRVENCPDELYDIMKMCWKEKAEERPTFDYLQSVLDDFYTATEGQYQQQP
# [3] = Bioavailability and pharmacokinetics of polymorphs 1 and 2 after single oral dose, cross-over, in dogs; format: in vivo, male Beagle dog; settings: for LS geometric mean Cmax: corrected to a 60.0-mg dose; for adverse reactions to the oral administration: single oral dose 60 mg/kg
# Description: This study was designed to obtain blood plasma samples to enable the comparison of the bioavailability and pharmacokinetics of two different polymorphs 1 and 2 following single-dose oral administration to six dogs. A cross-over design was used with three dogs treated according to sequence 1 (polymorph 2 after 1) and three dogs according to sequence 2 (polymorph 1 after 2) with a one-week washout period between treatments.
# Each polymorph was prepared as a suspension in a vehicle of 0.5% w/v HPMC K15M/0.5% w/v Tween 80 in sterile water.
# Six male Beagle dogs (Tattoo numbers: 4986, 0964, 3611, 2380, 5002 and 1122 on-study animal numbers: 001 M, 002M, 003M, 004M, 005M and 006M, respectively) bodyweight 9.5-11.5 kg, aged 2-7 years at dosing, currently held as part of a colony of animals (Colony number: 190431) were used on this study. Dogs were originally obtained from Marshall Farms USA Inc. (NY, USA) or Envigo RMS, and were bred for use in scientific procedures. During pre-trial and on-study periods, the animals were group-housed in caging appropriate to the species. Prior to acceptance for use on study, animals were subject to a veterinary examination and the results found to be satisfactory. Holding and study areas had automatic control of light cycles and temperature. Light hours were 0700-1900 h. Ranges of temperature and humidity measured during the study were 17.0-21.8° C. and 23.4-83.07%, respectively. All animals were weighed prior to each dose administration and the bodyweights recorded. With the exception of a period of fasting from overnight predose until 4 hours post dose, a daily allowance of 200-300 g of standard laboratory diet of known formulation (SDS D3 (E) SQC) was available. Mains quality tap water was available ad libitum.
# The formulation was always prepared on the morning of dose administration. Each polymorph was prepared as a suspension at a concentration of 12 mg/mL in a vehicle of 0.5% w/v HPMC K15M/0.5% w/v Tween 80 in sterile water for injection. The required volume of vehicle was added to an appropriate formulation container.
# Each group of 3 male dogs, received a single oral dose administration of a polymorph at a target dose level of 60 mg/kg. Following a wash out period of 1 week each group of 3 male dogs received the alternative polymorph.
# For each group, whole blood samples (ca 1.0 mL) were collected from the jugular veins in to NaF/EDTA tubes at the following time points:
# Times given above were target times which were adhered to as closely as possible. Actual times of sample collection (and of dosing) were recorded (Table 2) and used in the evaluation of pharmacokinetic parameters. Immediately following collection, blood samples were placed on wet ice. As soon as practically possible the blood samples were centrifuged (+4° C., 1500 g, 10 min). The resulting plasma was divided into two aliquots (vial A: 100 μl plasma, vial B: remaining volume) and stored in appropriately labelled polypropylene tubes in a freezer set to maintain a temperature of −80° C. until shipment. All plasma samples, remaining dose formulation and dose aliquots were stored in a freezer set to maintain a temperature of −80° C. until shipment.
# Pharmacokinetic (PK) parameters were estimated using Phoenix pharmacokinetic software using a non-compartmental approach consistent with the oral route of administration. All parameters were generated from polymorph 1 and 2 individual concentrations in plasma. Parameters were estimated using nominal sampling times relative to the start of each dose administration within an allowable deviation range (±10%). Predose samples below the limit of quantification (0.5 ng/mL) were assumed to be 0 for the PK analysis.
# The area under the polymorph 1 and 2 plasma concentration versus time curve (AUC) was calculated using the linear trapezoidal method with linear interpolation. […]
# [4] = molecular target: BLK tyrosine kinase (Homo sapiens, UniProt P51451); assay: Effect on BLK tyrosine kinase activity; format: biochemical
# Chain of BLK tyrosine kinase (P51451 whole entry): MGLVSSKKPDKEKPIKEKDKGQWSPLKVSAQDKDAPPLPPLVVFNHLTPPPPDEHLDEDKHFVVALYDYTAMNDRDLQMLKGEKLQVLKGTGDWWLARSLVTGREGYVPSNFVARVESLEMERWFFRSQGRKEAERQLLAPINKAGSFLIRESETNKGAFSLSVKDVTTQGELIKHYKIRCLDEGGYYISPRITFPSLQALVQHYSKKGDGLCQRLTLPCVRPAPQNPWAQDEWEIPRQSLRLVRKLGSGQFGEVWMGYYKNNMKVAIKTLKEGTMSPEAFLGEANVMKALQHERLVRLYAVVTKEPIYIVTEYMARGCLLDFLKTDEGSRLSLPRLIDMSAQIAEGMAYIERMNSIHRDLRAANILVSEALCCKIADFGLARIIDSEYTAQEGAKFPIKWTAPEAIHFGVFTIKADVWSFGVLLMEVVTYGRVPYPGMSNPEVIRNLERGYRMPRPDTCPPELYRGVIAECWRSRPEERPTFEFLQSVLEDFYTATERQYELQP
# [5] = Gravimetric Vapour Sorption (GVS); format: physicochemical; settings: for change of polymorphic form on GVS cycling: hysteresis between cycles / XRPD after the cycles; for weight gain to 80% RH (GVS): first adsorption cycle
# Description: Gravimetric Vapour Sorption (GVS)
# Approximately 10 mg of sample was placed into a wire-mesh vapour sorption balance pan and loaded into an ‘IgaSorp’ vapour sorption balance (Hiden Analytical Instruments). The sample was then dried by maintaining a 0% humidity environment until no further weight change was recorded. Subsequently, the sample was subjected to a ramping profile from 0-90% RH at 10% RH increments, maintaining the sample at each step until equilibration had been attained (99% step completion). Upon reaching equilibration, the % RH within the apparatus was ramped to the next step and the equilibration procedure repeated. After completion of the sorption cycle, the sample was then dried using the same procedure. The weight change during the sorption/desorption cycles were then monitored, allowing for the hygroscopic nature of the sample to be determined.
# [6] = male Beagle dog plasma, oral suspension, target 60 mg/kg
# Chain of LynB tyrosine kinase (P07948 1-491 isoform P07948-2): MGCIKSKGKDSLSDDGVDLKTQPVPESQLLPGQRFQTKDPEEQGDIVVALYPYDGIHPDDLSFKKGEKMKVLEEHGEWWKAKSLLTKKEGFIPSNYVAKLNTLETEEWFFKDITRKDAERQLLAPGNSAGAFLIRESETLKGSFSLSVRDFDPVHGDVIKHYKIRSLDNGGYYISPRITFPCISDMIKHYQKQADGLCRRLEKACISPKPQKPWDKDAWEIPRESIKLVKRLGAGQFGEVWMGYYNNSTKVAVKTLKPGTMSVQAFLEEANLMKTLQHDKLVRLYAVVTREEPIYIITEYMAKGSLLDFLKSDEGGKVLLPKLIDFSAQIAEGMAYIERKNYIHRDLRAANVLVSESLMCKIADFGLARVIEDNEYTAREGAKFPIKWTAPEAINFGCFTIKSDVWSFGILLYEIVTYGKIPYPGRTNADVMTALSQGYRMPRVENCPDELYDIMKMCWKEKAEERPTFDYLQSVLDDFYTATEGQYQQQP
compound,measurement,setting,value
"C[C@H](O)COC[C@H](Cc1ccc(O)cc1)NC(=O)CCc1ccccc1 [NRD135S.E1, (S,S)-2-N(3-O-(propan-2-ol)-1-propyl-4-hydroxybenzene)-3-phenylpropylamide]",effect on activity of LynB tyrosine kinase,[1],no or substantially no effect
same,effect on activity of LynA tyrosine kinase,[2],capable of activating
same,extrapolated part of AUC(0-∞),"[3]; male Beagle dog, oral 60 mg/kg",no more than 6%
same,half-life,"[3]; plasma, male Beagle dog, oral 60 mg/kg, terminal decline, read-out: estimated mean half-life",180 to 240 min
same,effect on activity of BLK tyrosine kinase,[4],capable of activating
"C[C@H](O)COC[C@H](Cc1ccc(O)cc1)NC(=O)CCc1ccccc1 [polymorph 1, (S,S)-2-N(3-O-(propan-2-ol)-1-propyl-4-hydroxybenzene)-3-phenylpropylamide]","hygroscopicity (GVS, in words)",[5],hygroscopic
same,change of polymorphic form on GVS cycling,[5],hinted towards form change
same,weight increase in second adsorption cycle (GVS),"[5]; second adsorption cycle, RH of 40%",> 2%
same,weight increase to 70% RH (GVS),[5]; to 70% RH,~1.3%
same,weight gain to 80% RH (GVS),[5],5.6%
same,LS geometric mean Cmax,[3]; [6],4986 ng/mL
same,adverse reactions to the oral administration,[3]; male Beagle dog,No adverse reactions
same,AUC(0-inf),"[3]; male, Beagle, dog, plasma, po, 60 mg/kg, male Beagle dog plasma, oral suspension, target 60 mg/kg, corrected to a 60.0 mg dose, read-out: LS geometric mean AUC(0-∞)",13200 ng·h/mL
"C[C@H](O)COC[C@H](Cc1ccc(O)cc1)NC(=O)CCc1ccccc1 [polymorph 2, (S,S)-2-N(3-O-(propan-2-ol)-1-propyl-4-hydroxybenzene)-3-phenylpropylamide]","hygroscopicity (GVS, in words)",[5],only slightly hygroscopic
same,overall weight loss by the end of the two adsorption/desorption cycles (GVS),[5]; after two adsorption/desorption cycles,~1%
same,change of polymorphic form on GVS cycling,[5]; listed as Form 2,no change of polymorphic form
same,"hygroscopicity (GVS, in words)",[5]; listed as Form 2,only slightly hygroscopic
same,weight gain to 80% RH (GVS),[5],0.6%
same,weight gain to 80% RH (GVS),[5]; listed as Form 2,0.6%
same,bioavailability (in words),[3]; dog bioavailability tests,exceptionally high
same,LS geometric mean AUC(0-∞),"[3]; male Beagle dog plasma, oral suspension, target 60 mg/kg, corrected to a 60.0 mg dose",20064 ng·h/mL
same,LS geometric mean Cmax,[3]; [6],11088 ng/mL
same,geometric mean ratio (polymorph 2/polymorph 1) of AUC(0-∞),"[3]; male Beagle dog, oral, dose-corrected, 90% CI 1.35, 1.71",1.52
same,geometric mean ratio (polymorph 2/polymorph 1) of Cmax,"[3]; male Beagle dog, oral, dose-corrected, 90% CI 1.84, 2.70",2.22
same,adverse reactions to the oral administration,[3]; male Beagle dog,No adverse reactions
